The results in this text go back to patent US6492302B1, “Compositions for the protection of plants against the stress of oxidation” (priority 1998, dated 2002).

The assay can be described thus: antioxidant properties of lipo-amino acids.

Regarding butyryl-cystine, the antioxidant properties result is on record as “does not possess these properties”.
